Like-named read-outs stand apart in the source and are kept apart here.
Assays:
Test in all cases: MTT cancer cell growth inhibition
Type in all cases: cell-based
[1] = test system: HT1080 (human fibrosarcoma cells); conditions: Homo sapiens, HT-1080, 72 h, MTT, 72 hours incubation, read-out: GI50 HT1
In short: (§1)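 Seed 1500 cells/well, incubate overnight. Add compound, 10^−5 to 10^−10 M final, n=3; culture 72 h, 37° C., 5% CO2. Add MTT, 4 h. Discard supernatant, dissolve in DMSO. Read 570 nm; calculate viability and GI50.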

[2] = test system: K562 (human leukemia cells); conditions: Homo sapiens, K562, 72 h, MTT, 72 hours incubation, K562 cells; read-out: GI50 K562
In short: as §1

[3] = test system: N-87 (human gastric cancer cells); conditions: Homo sapiens, 72 h, MTT, 72 hours incubation, N-87 cells; read-out: GI50 N-87
In short: as §1

[4] = test system: MCF-7 (human breast cancer cells); conditions: Homo sapiens, MCF7, 72 h, 72 hours incubation, read-out: GI50 MCF
In short: as §1

[5] = test system: A549 (human lung cancer cells); conditions: Homo sapiens, A549, 72 h, MTT, 72 hours incubation, read-out: GI50 A54
In short: as §1

[6] = test system: Hela (human cervical cancer cells); conditions: Homo sapiens, HeLa, 72 h, MTT, 72 hours incubation, read-out: GI50 Hela
In short: as §1

[7] = test system: MDA-MB-231 (breast cancer cells); conditions: Homo sapiens, MDA-MB-231, 72 h, read-out: GI50 MDA-MB-231, MTT, 72 hours incubation, MDA-MB-231 cells
In short: as §1

[8] = test system: Bel-7402 (human hepatoma cells); conditions: Homo sapiens, Bel-7402, 72 h, MTT, 72 hours incubation, Bel-7402 cells; read-out: GI50 Bel-7402
In short: as §1

[9] = test system: lncap (prostate cancer cells); conditions: Homo sapiens, LNCaP, 72 h, MTT, 72 hours incubation, read-out: GI50 lnca
In short: as §1

[10] = test system: BGC-823 (human gastric cancer cells); conditions: Homo sapiens, BGC-823, 72 h, MTT, 72 hours incubation, read-out: GI50 BG
In short: as §1

[11] = test system: H1975 (non-small cell lung adenocarcinoma); conditions: Homo sapiens, NCI-H1975, 72 h, MTT, 72 hours incubation, H1975 cells; read-out: GI50 H1975
In short: as §1

[12] = test system: KBM5-T315I (human chronic myelogenous leukemia); conditions: Homo sapiens, 72 h, MTT, 72 hours incubation, KBM5-T315I cells; read-out: GI50 KBM5-T315I
In short: as §1

[13] = test system: Huh-7 (human hepatoma cells); conditions: Homo sapiens, Huh-7, 72 h, MTT, 72 hours incubation, Huh-7 cells; read-out: GI50 Huh-7
In short: as §1

[14] = test system: MOLT-4 (human acute lymphoblastic leukemia cells); conditions: Homo sapiens, MOLT-4, 72 h, MTT, 72 hours incubation, read-out: GI50 Mol
In short: as §1

[15] = test system: KBM-5 (human chronic myelogenous leukemia); conditions: Homo sapiens, KBM5, 72 h, MTT, 72 hours incubation, KBM-5 cells; read-out: GI50 KBM-5
In short: as §1

SMILES	GI50 [1]	GI50 [2]	GI50 [3]	GI50 [4]	GI50 [5]	GI50 [6]	GI50 [7]	GI50 [8]	GI50 [9]	GI50 [10]	GI50 [11]	GI50 [12]	GI50 [13]	GI50 [14]	GI50 [15]	other results
C/C=C1\NC(=O)c2ccc(F)c(n2)CNC(=O)C[C@@H](/C=C/CCSC(C)=O)OC(=O)[C@H](CCCCNC(=O)OCC2c3ccccc3-c3ccccc32)NC1=O [Example 77]	80 nM	42 nM	52 nM	30 nM	600 nM	50 nM	25 nM	83 nM	20 nM	50 nM	35 nM	37 nM	25 nM	20 nM	52 nM	
C/C=C1\NC(=O)c2cccc(n2)CNC(=O)C[C@@H](/C=C/CCSC(=O)CCCCC)OC(=O)[C@H](C(C)C)NC1=O [Compound 3]	60 nM	37 nM	43 nM	30 nM	50 nM	50 nM	91 nM	97 nM		60 nM	29 nM	34 nM	43 nM		73 nM	
C/C=C1\NC(=O)c2cccc(n2)CNC(=O)C[C@@H](/C=C/CCSC(=O)CCCCCC)OC(=O)[C@H](C(C)C)NC1=O [Compound 2]	50 nM	51 nM	29 nM	30 nM	40 nM	30 nM	92 nM	83 nM		60 nM	34 nM	29 nM	73 nM		51 nM	
C/C=C1\NC(=O)c2nc(ccc2F)CNC(=O)C[C@@H](/C=C/CCSC(C)=O)OC(=O)[C@H](Cc2cccc3ccccc23)NC1=O [Compound 78]	70 nM	46 nM	61 nM	10 nM	60 nM	60 nM	29 nM	72 nM	20 nM	60 nM	63 nM	19 nM	29 nM	20 nM	61 nM	
C/C=C1\NC(=O)c2nc(ccc2F)CNC(=O)C[C@@H](/C=C/CCSC(C)=O)OC(=O)[C@H](Cc2ccc(O)cc2)NC1=O [Compound 81]	50 nM	29 nM	35 nM	30 nM	50 nM	30 nM	34 nM	51 nM	30 nM	30 nM	43 nM	34 nM	34 nM	30 nM	38 nM	
CC(=O)SCC/C=C/[C@@H]1CC(=O)NCc2cc(F)cc(n2)C(=O)NC(=C(C)C)C(=O)N[C@@H](C(C)C)C(=O)O1 [Compound 88]	60 nM	34 nM	31 nM	20 nM	20 nM	70 nM	38 nM	67 nM	30 nM	30 nM	53 nM	24 nM	38 nM	30 nM	71 nM	
C=C1NC(=O)c2nc(ccc2F)CNC(=O)C[C@@H](/C=C/CCSC(C)=O)OC(=O)[C@H](C(C)C)NC1=O [Compound 84]	70 nM	35 nM	19 nM	20 nM	40 nM	50 nM	28 nM	73 nM	20 nM	10 nM	55 nM	26 nM	28 nM	20 nM	51 nM	
C/C=C1\NC(=O)c2ccc(SC)c(n2)CNC(=O)C[C@@H](/C=C/CCSC(=O)CCCCCCC)OC(=O)[C@H](CC)NC1=O [Compound 173]		53 nM	83 nM				48 nM	22 nM			36 nM	12 nM	71 nM		13 nM	GI50 ([1]; HT1080 cells): 70 nM; GI50 ([4]; MCF-7 cells): 20 nM; GI50 ([5]; A549 cells): 60 nM; GI50 ([6]; Hela cells): 60 nM; GI50 ([9]; lncap cells): 40 nM; GI50 ([10]; BGC-823 cells): 40 nM; GI50 ([14]; MOLT-4 cells): 30 nM

Further lines, with some results ahead:

GI50 [1]	GI50 [2]	GI50 [3]	GI50 [4]	GI50 [5]	GI50 [6]	GI50 [7]	GI50 [8]	GI50 [9]	GI50 [10]	GI50 [11]	GI50 [12]	GI50 [13]	GI50 [14]	GI50 [15]	SMILES	other results
80 nM	39 nM	51 nM	20 nM	30 nM	40 nM	33 nM	84 nM	30 nM	50 nM	34 nM	26 nM	33 nM	30 nM	46 nM	C/C=C1\NC(=O)c2cc(C)cc(n2)CNC(=O)C[C@@H](/C=C/CCSC(C)=O)OC(=O)[C@H](Cc2ccccc2)NC1=O [Example 67]	
80 nM	36 nM	26 nM	30 nM	40 nM	40 nM	29 nM	81 nM	20 nM	20 nM	52 nM	38 nM	29 nM	20 nM	49 nM	C/C=C1\NC(=O)c2cc(F)cc(n2)CNC(=O)C[C@@H](/C=C/CCSC(C)=O)OC(=O)[C@H](Cc2ccc(O)cc2)NC1=O [Example 82]	
90 nM	27 nM	22 nM	20 nM	50 nM	70 nM	31 nM	91 nM	30 nM	20 nM	61 nM	28 nM	31 nM	30 nM	76 nM	C/C=C1\NC(=O)c2cc(F)cc(n2)CNC(=O)C[C@@H](/C=C/CCSC(C)=O)OC(=O)[C@H](Cc2cccc3ccccc23)NC1=O [Example 79]	
